The term LD50 denotes the dose expected to kill half of the subjects tested.

Like-named read-outs stand apart in the source and are kept apart here. Some results are limits rather than exact numbers.

The values below come from patent publication US4395417A, “Antihyperlipidemic compositions” (Research Corporation, priority 1980, dated 1983).

For series [1], the target named is T1, Acetyl-CoA Synthetase (Mus musculus, UniProt Q9QXG4).
T1 construct: gm wet tissue/30 min; from tissue
As to the kind of experiment: In vitro acetyl coenzyme A synthetase activity (method of Goodridge). The settings on record: for Acetyl-CoA Synthetase: Table 2, N = 6, x ± S.D., control 28.5 mg acetyl CoA formed/gm wet tissue/30 min.; for in vitro AcCoA synthetase: Table 3, N = 6, control 10.8 mg/g wet tissue. Type of series: biochemical, mice.

Series [2] addresses T2, Citrate Lyase (Mus musculus, UniProt Q91V92).
T2 construct: 30.5 mg of citrate hydrolyzed/gm wet tissue/30 min; from tissue
T2 sequence (Q91V92 1-1091): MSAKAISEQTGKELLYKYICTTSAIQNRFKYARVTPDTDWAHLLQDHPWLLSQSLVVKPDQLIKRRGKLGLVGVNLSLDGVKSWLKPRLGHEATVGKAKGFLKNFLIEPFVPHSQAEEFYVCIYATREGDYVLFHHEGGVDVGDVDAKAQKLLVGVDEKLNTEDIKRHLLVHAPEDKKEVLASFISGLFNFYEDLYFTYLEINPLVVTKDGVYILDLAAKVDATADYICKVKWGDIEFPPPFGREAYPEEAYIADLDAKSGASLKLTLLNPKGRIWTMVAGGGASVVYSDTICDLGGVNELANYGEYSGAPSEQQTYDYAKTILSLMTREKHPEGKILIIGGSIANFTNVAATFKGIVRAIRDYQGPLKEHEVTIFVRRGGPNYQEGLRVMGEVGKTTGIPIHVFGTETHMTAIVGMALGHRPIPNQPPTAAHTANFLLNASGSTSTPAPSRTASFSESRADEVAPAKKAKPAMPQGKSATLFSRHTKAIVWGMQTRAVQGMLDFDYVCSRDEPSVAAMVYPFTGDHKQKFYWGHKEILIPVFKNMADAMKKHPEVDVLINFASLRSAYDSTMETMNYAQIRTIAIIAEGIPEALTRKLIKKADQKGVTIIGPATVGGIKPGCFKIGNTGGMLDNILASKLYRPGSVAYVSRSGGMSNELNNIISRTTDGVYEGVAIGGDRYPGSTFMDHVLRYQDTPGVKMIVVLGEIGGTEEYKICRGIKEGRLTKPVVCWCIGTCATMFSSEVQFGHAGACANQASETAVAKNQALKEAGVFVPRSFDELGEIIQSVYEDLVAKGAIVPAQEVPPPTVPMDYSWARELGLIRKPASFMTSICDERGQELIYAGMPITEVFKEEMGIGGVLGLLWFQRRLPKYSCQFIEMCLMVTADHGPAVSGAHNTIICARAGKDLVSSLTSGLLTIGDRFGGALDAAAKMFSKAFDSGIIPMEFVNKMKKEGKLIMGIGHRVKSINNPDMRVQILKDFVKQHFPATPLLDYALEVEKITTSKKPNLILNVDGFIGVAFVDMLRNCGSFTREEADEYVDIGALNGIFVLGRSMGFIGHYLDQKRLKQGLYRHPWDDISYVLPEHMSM
The series is described as follows: In vitro effect on citrate lyase. The class given is biochemical. The settings on record: Table 2, N = 6, x ± S.D., control 30.5 mg of citrate hydrolyzed/gm wet tissue/30 min.

Series [3] addresses T3, Acetyl-CoA Carboxylase (Mus musculus, UniProt Q5SWU9).
T3 construct: 32,010 dpm/gm wet tissue/30 min; from tissue
The series is described as follows: In vitro acetyl coenzyme A carboxylase activity (method of Greenspan and Lowenstein). The class given is biochemical. The settings on record: Table 2, N = 6, x ± S.D., control 32,010 dpm/gm wet tissue/30 min.

For series [4], the system named is serum cholesterol. As to the kind of experiment: Serum cholesterol of male CF1 mice (Liebermann-Burchard reaction). The class given is in vivo. The note with it: Mus musculus, ip. As for the experimental part: (§1) For hypolipidemic activity, the compounds were tested at 20 mg/kg/day administered I.P. to male CF1 mice (~30 g). On days 9 and 16 blood was collected by tail-vein bleeding. Serum cholesterol was determined by the Liebermann-Burchard reaction. Serum triglyceride levels were determined using the Hycel commercial kits on a separate group of mice, which were bled on day 14.

Series [5] has as its target T4, Fatty Acid Synthetase (Mus musculus, UniProt P19096).
T4 construct: gm wet tissue/30 min; from tissue
As to the kind of experiment: In vitro effect on fatty acid synthetase. The class given is biochemical. The settings on record: Table 2, N = 6, x ± S.D.

Series [6] concerns serum triglyceride. As to the kind of experiment: Serum triglyceride levels of male mice (Hycel commercial kits). Type of series: in vivo, male CF1 mice. The note with it: Mus musculus, ip, 336 h. As for the experimental part: as §1
The nature of series [7]: Size of vas deferens, vesicular or testes after 16 day treatment in mice. The settings on record: 16 day treatment at 10 (mg/kg)/day. Type of series: in vivo.
Series [8] in a line: Acute toxicity (LD50) in mice. The note with it: mouse, in vivo. Type of series: in vivo. An excerpt: (§2) They also are non-toxic. […] Moreover, there is no evidence that the weight of any of the major organs is altered as a result of treatment with compounds used in the invention.
Series [9] relates to mice. The series is described as follows: Acute toxicity (LD50) in mice. The class given is in vivo. The note with it: 2 g/kg.
Description: as §2

The test system of series [10] is ovariectomized immature females. As to the kind of experiment: Uterotropic effects in ovariectomized immature females. The class given is in vivo, mice. The note with it: 20 mg/kg.
Series [11] is described as follows: Hypertrophy of the adrenal. Further details: species or system mice. The settings on record: mouse, in vivo.
The mark [12] stands for this setting: 216 h, Table 1, 20 mg/kg/day I.P., male CF1 mice, N = 6, 9th day, control value 118 mg %, read-out: Serum Cholesterol, 9th day.
Setting [13] is: 384 h, Table 1, 20 mg/kg/day I.P., male CF1 mice, N = 6, 16th day, control value 122 mg %, read-out: Serum Cholesterol, 16th day.
Setting [14] is: Table 1, 20 mg/kg/day I.P., male mice, N = 6, 14th day, control value 137 mg %, read-out: Serum Triglyceride, 14th day.
Setting [15] is: 216 h, Table 3, mice, N = 6, 9th day, control 115 mg %, read-out: serum cholesterol, 9th day.
Setting [16] is: 384 h, Table 3, mice, N = 6, 16th day, control 118 mg %, read-out: serum cholesterol, 16th day.
Setting [17] is: Table 3, mice, N = 6, control 138 mg %, read-out: serum triglycerides.

T1 sequence (Q9QXG4 whole entry): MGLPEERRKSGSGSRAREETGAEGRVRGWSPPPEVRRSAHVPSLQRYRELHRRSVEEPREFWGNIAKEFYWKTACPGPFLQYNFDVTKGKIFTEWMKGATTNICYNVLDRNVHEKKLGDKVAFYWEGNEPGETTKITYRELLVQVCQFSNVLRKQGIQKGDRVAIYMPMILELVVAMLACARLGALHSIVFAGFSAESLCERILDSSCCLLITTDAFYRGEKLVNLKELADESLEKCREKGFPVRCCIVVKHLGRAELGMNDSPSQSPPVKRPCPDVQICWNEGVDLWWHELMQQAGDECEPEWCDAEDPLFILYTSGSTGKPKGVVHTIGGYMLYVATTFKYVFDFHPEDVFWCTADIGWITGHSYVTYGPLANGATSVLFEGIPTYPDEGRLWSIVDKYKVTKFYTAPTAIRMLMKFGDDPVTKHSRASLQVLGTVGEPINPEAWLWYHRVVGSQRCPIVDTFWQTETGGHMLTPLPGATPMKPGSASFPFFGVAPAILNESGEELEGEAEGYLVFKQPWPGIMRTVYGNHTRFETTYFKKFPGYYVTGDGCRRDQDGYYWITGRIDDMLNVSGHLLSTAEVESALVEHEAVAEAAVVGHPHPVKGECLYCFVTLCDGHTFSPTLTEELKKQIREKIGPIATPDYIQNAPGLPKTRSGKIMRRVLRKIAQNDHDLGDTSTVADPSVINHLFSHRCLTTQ
T4 sequence (P19096 whole entry): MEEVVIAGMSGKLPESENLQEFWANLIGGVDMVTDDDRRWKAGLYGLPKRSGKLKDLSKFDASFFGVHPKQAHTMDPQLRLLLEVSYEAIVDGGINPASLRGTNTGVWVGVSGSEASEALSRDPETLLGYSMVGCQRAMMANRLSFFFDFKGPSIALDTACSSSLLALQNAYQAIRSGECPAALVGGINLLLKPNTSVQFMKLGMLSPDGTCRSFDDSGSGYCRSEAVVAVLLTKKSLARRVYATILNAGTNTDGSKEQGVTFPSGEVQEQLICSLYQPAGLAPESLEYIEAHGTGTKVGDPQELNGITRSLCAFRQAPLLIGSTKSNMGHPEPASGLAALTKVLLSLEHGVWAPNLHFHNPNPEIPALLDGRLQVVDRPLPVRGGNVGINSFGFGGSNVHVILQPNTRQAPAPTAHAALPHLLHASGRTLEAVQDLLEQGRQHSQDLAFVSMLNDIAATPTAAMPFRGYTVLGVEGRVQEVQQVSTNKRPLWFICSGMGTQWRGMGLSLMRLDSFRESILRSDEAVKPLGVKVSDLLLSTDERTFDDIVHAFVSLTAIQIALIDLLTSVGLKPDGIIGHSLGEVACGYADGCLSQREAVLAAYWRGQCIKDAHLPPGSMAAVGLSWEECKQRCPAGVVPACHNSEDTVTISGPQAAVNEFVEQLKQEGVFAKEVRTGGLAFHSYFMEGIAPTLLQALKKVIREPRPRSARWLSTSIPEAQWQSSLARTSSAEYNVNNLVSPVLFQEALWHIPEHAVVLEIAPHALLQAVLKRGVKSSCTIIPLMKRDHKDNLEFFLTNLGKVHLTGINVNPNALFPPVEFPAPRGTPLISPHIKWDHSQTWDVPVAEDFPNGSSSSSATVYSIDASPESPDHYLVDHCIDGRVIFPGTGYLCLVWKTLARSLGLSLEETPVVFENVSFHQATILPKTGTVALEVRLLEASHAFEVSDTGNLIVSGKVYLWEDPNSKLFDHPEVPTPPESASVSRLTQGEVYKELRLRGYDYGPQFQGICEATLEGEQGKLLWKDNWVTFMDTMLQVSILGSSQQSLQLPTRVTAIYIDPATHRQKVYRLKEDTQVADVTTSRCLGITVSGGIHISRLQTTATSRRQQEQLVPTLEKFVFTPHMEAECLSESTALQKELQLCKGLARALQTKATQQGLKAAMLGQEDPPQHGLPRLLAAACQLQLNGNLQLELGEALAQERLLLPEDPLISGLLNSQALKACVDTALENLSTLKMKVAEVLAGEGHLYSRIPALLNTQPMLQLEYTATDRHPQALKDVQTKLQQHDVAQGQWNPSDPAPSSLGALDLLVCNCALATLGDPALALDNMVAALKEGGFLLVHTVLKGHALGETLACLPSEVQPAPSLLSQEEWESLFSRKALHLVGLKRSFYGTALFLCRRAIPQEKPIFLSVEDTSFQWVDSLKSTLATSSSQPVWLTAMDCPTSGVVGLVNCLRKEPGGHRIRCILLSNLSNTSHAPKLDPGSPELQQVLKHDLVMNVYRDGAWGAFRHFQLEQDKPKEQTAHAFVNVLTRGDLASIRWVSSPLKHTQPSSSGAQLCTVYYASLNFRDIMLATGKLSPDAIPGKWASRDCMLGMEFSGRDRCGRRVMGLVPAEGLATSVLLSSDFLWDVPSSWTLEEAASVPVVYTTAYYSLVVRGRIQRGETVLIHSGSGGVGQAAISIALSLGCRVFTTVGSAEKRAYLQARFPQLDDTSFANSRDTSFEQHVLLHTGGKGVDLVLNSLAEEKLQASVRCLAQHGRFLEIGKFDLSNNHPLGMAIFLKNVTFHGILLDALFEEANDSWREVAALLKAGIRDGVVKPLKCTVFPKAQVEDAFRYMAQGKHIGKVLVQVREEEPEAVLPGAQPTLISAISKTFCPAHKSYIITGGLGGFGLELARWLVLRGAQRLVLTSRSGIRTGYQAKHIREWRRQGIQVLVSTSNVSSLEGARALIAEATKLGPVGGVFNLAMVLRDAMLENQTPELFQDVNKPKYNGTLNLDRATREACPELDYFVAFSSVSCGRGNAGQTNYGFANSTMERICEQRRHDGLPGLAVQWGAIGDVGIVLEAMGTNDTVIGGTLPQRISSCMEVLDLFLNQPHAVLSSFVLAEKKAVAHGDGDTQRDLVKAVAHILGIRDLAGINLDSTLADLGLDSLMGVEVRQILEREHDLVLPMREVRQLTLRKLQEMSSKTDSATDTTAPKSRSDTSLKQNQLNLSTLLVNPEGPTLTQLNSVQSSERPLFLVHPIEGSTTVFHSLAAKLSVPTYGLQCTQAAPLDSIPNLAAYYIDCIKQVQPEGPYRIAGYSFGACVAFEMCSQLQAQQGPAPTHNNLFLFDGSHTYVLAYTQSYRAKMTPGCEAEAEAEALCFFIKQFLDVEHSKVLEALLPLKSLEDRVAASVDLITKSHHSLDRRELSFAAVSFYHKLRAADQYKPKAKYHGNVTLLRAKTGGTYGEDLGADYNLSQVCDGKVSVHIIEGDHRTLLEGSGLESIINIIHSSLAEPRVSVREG

With `CC(=O)CCN1C(=O)c2ccccc2S1(=O)=O` [1-N--(o-Benzosulfimido)butan-3-one], the “Acetyl-CoA Synthetase” value in series [1] is 74 ± 9 % Control. Also, the “Citrate Lyase” value in [2] amounted to 47 ± 8 % Control. Besides, in series [3], the “Acetyl-CoA Carboxylase” value stood at 12 ± 3 % Control. Besides, the response vs control in vivo at 20 mg/kg/day in series [4] (setting [12]) turned out to be 60 ± 8%; in series [4] (setting [13]), 62 ± 6%; in [6] (setting [14]) it was 51 ± 7%. Also, in series [5], the “Fatty Acid Synthetase” value worked out at 104 ± 7 % Control.
On to `CC(=O)CCN1C(=O)c2ccccc2C1=O` [1-N--Phthalimidobutan-3-one], for which the “Acetyl-CoA Synthetase” value in [1] is on record as 53 ± 12 % Control. The “in vitro AcCoA synthetase” value in series [1] worked out at 53 ± 12 % Control. The “Citrate Lyase” value in series [2] was 34 ± 4 % Control. Moreover, in series [3], the “Acetyl-CoA Carboxylase” value worked out at 17 ± 3 % Control. The response vs control in vivo at 20 mg/kg/day in [4] (setting [12]) worked out at 67 ± 11%; in series [4] (setting [15]), 67 ± 11%; in series [4] (setting [13]) it was 63 ± 7%; in series [4] (setting [16]), 63 ± 7%; in series [6] (setting [14]), 58 ± 7%; in series [6] (setting [17]), 58 ± 7%. For the same compound, in [5], the “Fatty Acid Synthetase” value came out at 109 ± 7 % Control.
For the compound `CC(=O)CN1C(=O)c2ccccc2C1=O` [1-N--Phthalimidopropan-2-one], the “Acetyl-CoA Synthetase” value in [1] is 58 ± 7 % Control. Besides, the “in vitro AcCoA synthetase” value in series [1] came to 58 ± 7 % Control. For the same compound, the “decrease in the size of the vas deferens, vesicular or testes” value in [7] is given as “no decrease in the size of the vas deferens, vesicular or testes”. For the same compound, in series [2], the “Citrate Lyase” value is recorded as 76 ± 4 % Control. For the same compound, in [3], the “Acetyl-CoA Carboxylase” value worked out at 24 ± 4 % Control. For the same compound, the response vs control in vivo at 20 mg/kg/day in [4] (setting [12]) stood at 80 ± 16%; in series [4] (setting [15]), 80 ± 16%; in [4] (setting [13]) it was 67 ± 12%; in series [4] (setting [16]), 67 ± 12%; in series [6] (setting [14]), 48 ± 10%; in series [6] (setting [17]), 48 ± 10%. In series [8], this compound returned an LD50 greater than 2000 mg/kg. The deaths result in series [9] is on record as “no deaths were observed at this concentration”. Further, in series [10], the uterotropic effects entry is “nor did the drug demonstrate uterotropic effects”. Moreover, the “Fatty Acid Synthetase” value in series [5] was found to be 91 ± 9 % Control. Moreover, the “hypertrophy of the adrenal” value in [11] was “no hypertophy of the adrenal”.
As for `CC(=O)CCN1C(=O)CCC1=O` [1-N--Succinimidobutan-3-one], the “Acetyl-CoA Synthetase” value in series [1] is given as 58 ± 6 % Control. The “Citrate Lyase” value in series [2] is given as 38 ± 7 % Control. Besides, the “Acetyl-CoA Carboxylase” value in series [3] worked out at 100 ± 5 % Control. Moreover, the response vs control in vivo at 20 mg/kg/day came to 90 ± 9% in series [4] (setting [12]), 88 ± 7% in series [4] (setting [13]) and 79 ± 15% in series [6] (setting [14]). The “Fatty Acid Synthetase” value in series [5] was found to be 81 ± 7 % Control.
Turning to `O=C(O)CCN1C(=O)c2ccccc2C1=O` [3-N--Phthalimidopropionic Acid], the “Acetyl-CoA Synthetase” value in [1] was 57 ± 10 % Control. Further, in series [1], the “in vitro AcCoA synthetase” value stood at 57 ± 7 % Control. The “Citrate Lyase” value in series [2] is recorded as 87 ± 6 % Control. Also, the “Acetyl-CoA Carboxylase” value in [3] was 18 ± 4 % Control. Also, the response vs control in vivo at 20 mg/kg/day was 74 ± 10% in series [4] (setting [12]); 74 ± 7% in series [4] (setting [15]); 55 ± 12% in series [4] (setting [13]); 55 ± 11% in series [4] (setting [16]); 58 ± 9% in series [6] (setting [14]); 58 ± 10% in series [6] (setting [17]). Further, the “Fatty Acid Synthetase” value in [5] is listed as 107 ± 7 % Control.
For the compound `CCCCN1C(=O)c2ccccc2C1=O` [N--n-Butylphthalimide], the “Acetyl-CoA Synthetase” value in series [1] was 44 ± 11 % Control. Moreover, the “in vitro AcCoA synthetase” value in series [1] turned out to be 82 ± 7 % Control. Also, the “Citrate Lyase” value in series [2] turned out to be 72 ± 9 % Control. For the same compound, the “Acetyl-CoA Carboxylase” value in series [3] is on record as 76 ± 3 % Control. For the same compound, the response vs control in vivo at 20 mg/kg/day in series [4] (setting [12]) stood at 72 ± 11%; in [4] (setting [15]), 72 ± 10%; in series [4] (setting [13]) it was 54 ± 6%; in series [4] (setting [16]), 54 ± 6%; in [6] (setting [14]) it was 82 ± 10%; in series [6] (setting [17]), 82 ± 16%. The “Fatty Acid Synthetase” value in [5] was found to be 75 ± 10 % Control.
With `O=C1NC(=O)c2ccccc21` [Phthalimide], the “Acetyl-CoA Synthetase” value in series [1] amounted to 70 ± 8 % Control. The “Citrate Lyase” value in series [2] was 42 ± 6 % Control. The “Acetyl-CoA Carboxylase” value in series [3] was 8 ± 4 % Control. Also, the results for the response vs control in vivo at 20 mg/kg/day in [4] (setting [12]), in series [4] (setting [13]) and in [6] (setting [14]) were 63 ± 13%, 57 ± 7% and 44 ± 8%, respectively. For the same compound, in series [5], the “Fatty Acid Synthetase” value is on record as 105 ± 8 % Control.
Take `O=C1NS(=O)(=O)c2ccccc21` [Saccharin]: in series [1], the “Acetyl-CoA Synthetase” value was determined as 61 ± 7 % Control. The “Citrate Lyase” value in [2] is reported as 65 ± 6 % Control. Moreover, in [3], the “Acetyl-CoA Carboxylase” value is listed as 9 ± 2 % Control. Besides, the response vs control in vivo at 20 mg/kg/day in [4] (setting [12]) was found to be 68 ± 11%; in [4] (setting [13]), 67 ± 10%; in series [6] (setting [14]), 51 ± 16%. Further, the “Fatty Acid Synthetase” value in [5] is recorded as 93 ± 5 % Control.
As to `O=C1CCC(=O)N1` [Succinimide], in series [1], the “Acetyl-CoA Synthetase” value is recorded as 74 ± 6 % Control. In addition, the “Citrate Lyase” value in series [2] is 38 ± 3 % Control. Moreover, the “Acetyl-CoA Carboxylase” value in series [3] was 87 ± 7 % Control. Besides, the response vs control in vivo at 20 mg/kg/day in series [4] (setting [12]) amounted to 78 ± 9%; in series [4] (setting [13]), 73 ± 12%; in series [6] (setting [14]), 68 ± 7%. Further, the “Fatty Acid Synthetase” value in series [5] is given as 98 ± 9 % Control.
